Test system: Erysiphe graminis f.sp. hordei
Test: Leaf-disc-test, efficacy against Erysiphe graminis f.sp. hordei on barley (Example B-2 c)
Format: in vivo
Settings: single active ingredient, curative application 2 days after inoculation, barley leaf segments, infection in control: 68%
From the text: A synergistic effect exists whenever the action of an active ingredient combination is greater than the sum of the actions of the individual components. The action to be expected E for a given active ingredient combination obeys the so-called COLBY formula and can be calculated as follows (COLBY, S. R. “Calculating synergistic and antagonistic responses of herbicide combination”. Weeds, Vol. 15, pages 20-22; 1967): According to Colby, the expected (additive) action of active ingredients I+II using p+q ppm of active ingredient is [formula] If the action actually observed (O) is greater than the expected action (E), then the action of the combination is superadditive, i.e. there is a synergistic effect. Efficacy Against Erysiphe graminis f.sp. hordei on Barley c) Leaf-disc-test Barley plants, cv. “Hasso” were cultivated under greenhouse conditions at 20° C. in TKS-1 standard soil for 10 days. Leaf segments with a length of 10 mm were cut out of the primary leaves and were placed with the upper side up in multiple well plates (24 wells per plate). Each well contains 2 ml of 0.2% water agar+35 ppm benzimidazole. The fungicide treatment was carried out 2 days after inoculation (curative-application) by a total volume of 400 μl that were sprayed with an “air brush” on 4 leaf segments meaning 4 replicates. The inoculated leaf segments were incubated for 1 week in an incubation chamber by 18° C., the first two days in the dark, and the five next days by 12 hours light. After the incubation period, the % leaf attack was estimated with the help of a binocular and the % activity was calculated relative to the check.

## CC(C1CC1)C(O)(Cn1cncn1)c1ccc(Cl)cc1 (stereo not drawn) [cyproconazole]
conc. 0.0025 %
  % activity observed: 36%

## CC1COC(Cn2cncn2)(c2ccc(Oc3ccc(Cl)cc3)cc2Cl)O1 (stereo not drawn) [difenoconazole]
conc. 0.01 %
  % activity observed: 0%
conc. 0.025 %
  % activity observed: 41%
